We go through 21 compounds from PubChem BioAssay AID248 (DTP/NCI, 2004).

“And” between values parts separate entries of the source, which are not always exact repeats. Identical values can stand only once. Toxic doses and inconclusive results are not listed.

This test relates to L1210 leukemia ip in BDF1 mice, survival T/C. The test is described as follows: NCI In Vivo Anticancer Drug Screen. Data for tumor model L1210 Leukemia (intraperitoneal) in B6D2F1 (BDF1) mice. Particulars: endpoint: mean survival time, higher = longer survival. The method, boiled down: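 Ratio derived from survival: compound-dosed mice over vehicle-dosed mice, all bearing a transplantable tumor.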

The mark [1] stands for this setting: dose: 100.0 mg/kg/injection, schedule: Q01DX009 (ip), vehicle: Klucel (hydroxypropylcellulose) (HPC).
[2] abbreviates: dose: 100.0 mg/kg/injection, schedule: Q04DX003 (ip), vehicle: Klucel (hydroxypropylcellulose) (HPC).
The mark [3] stands for this setting: dose: 200.0 mg/kg/injection, schedule: Q01DX009 (ip), vehicle: Klucel (hydroxypropylcellulose) (HPC).
Where [4] appears, read: dose: 400.0 mg/kg/injection, schedule: Q01DX009 (ip), vehicle: Klucel (hydroxypropylcellulose) (HPC).
[5] abbreviates: dose: 100.0 mg/kg/injection, schedule: Q01DX009 (ip), vehicle: saline with Tween-80.
The mark [6] stands for this setting: dose: 200.0 mg/kg/injection, schedule: Q01DX009 (ip), vehicle: saline with Tween-80.
[7] abbreviates: dose: 50.0 mg/kg/injection, schedule: Q01DX001 (ip), vehicle: saline.
[8] abbreviates: dose: 100.0 mg/kg/injection, schedule: Q01DX001 (ip), vehicle: saline.
Where [9] appears, read: dose: 200.0 mg/kg/injection, schedule: Q01DX001 (ip), vehicle: saline.
[10] abbreviates: dose: 400.0 mg/kg/injection, schedule: Q01DX001 (ip), vehicle: saline.
Setting [11] is: dose: 100.0 mg/kg/injection, schedule: Q01DX001 (ip), vehicle: Klucel (hydroxypropylcellulose) (HPC).
Setting [12] is: dose: 100.0 mg/kg/injection, schedule: Q04DX002 (ip), vehicle: Klucel (hydroxypropylcellulose) (HPC).
The mark [13] stands for this setting: dose: 200.0 mg/kg/injection, schedule: Q01DX001 (ip), vehicle: Klucel (hydroxypropylcellulose) (HPC).
Where [14] appears, read: dose: 200.0 mg/kg/injection, schedule: Q04DX002 (ip), vehicle: Klucel (hydroxypropylcellulose) (HPC).
Setting [15] is: dose: 400.0 mg/kg/injection, schedule: Q01DX001 (ip), vehicle: Klucel (hydroxypropylcellulose) (HPC).
Setting [16] is: dose: 400.0 mg/kg/injection, schedule: Q04DX002 (ip), vehicle: Klucel (hydroxypropylcellulose) (HPC).
The mark [17] stands for this setting: dose: 100.0 mg/kg/injection, schedule: Q01DX001 (ip), vehicle: saline with Tween-80.
[18] abbreviates: dose: 200.0 mg/kg/injection, schedule: Q01DX001 (ip), vehicle: saline with Tween-80.
Setting [19] is: dose: 100.0 mg/kg/injection, schedule: Q04DX002 (ip), vehicle: saline.
[20] abbreviates: dose: 200.0 mg/kg/injection, schedule: Q04DX002 (ip), vehicle: saline.
The mark [21] stands for this setting: dose: 400.0 mg/kg/injection, schedule: Q01DX001 (ip), vehicle: saline with Tween-80.
Where [22] appears, read: dose: 100.0 mg/kg/injection, schedule: Q04DX003 (ip), vehicle: saline with Tween-80.

In the case of `COc1ccccc1/C=C/c1cnccn1`, the T/C is, setting by setting: under setting [1], 98 % of control; under setting [2], 96 % of control; under setting [3], 101 % of control; (dose: 200.0 mg/kg/injection, schedule: Q04DX003 (ip), vehicle: Klucel (hydroxypropylcellulose) (HPC)) 102 % of control; under setting [4], 93 % of control; (dose: 400.0 mg/kg/injection, schedule: Q04DX003 (ip), vehicle: Klucel (hydroxypropylcellulose) (HPC)) 104 % of control.
In the case of `c1coc(-c2ncnc3c2Cc2ccccc2-3)c1`, the T/C is, setting by setting: (dose: 25.0 mg/kg/injection, schedule: Q01DX009 (ip), vehicle: Klucel (hydroxypropylcellulose) (HPC)) 96 % of control; (dose: 25.0 mg/kg/injection, schedule: Q04DX003 (ip), vehicle: Klucel (hydroxypropylcellulose) (HPC)) 98 % of control; (dose: 50.0 mg/kg/injection, schedule: Q01DX009 (ip), vehicle: Klucel (hydroxypropylcellulose) (HPC)) 91 % of control; (dose: 50.0 mg/kg/injection, schedule: Q04DX003 (ip), vehicle: Klucel (hydroxypropylcellulose) (HPC)) 91 % of control; under setting [1], 102 % of control; under setting [2], 100 % of control.
Turning to `COc1ccc2c(c1)Cc1cc(NC(=O)N(CCCl)N=O)ccc1-2`, the T/C by setting is: (dose: 10.0 mg/kg/injection, schedule: Q01DX009 (ip), vehicle: saline) 151 % of control; (dose: 20.0 mg/kg/injection, schedule: Q01DX009 (ip), vehicle: saline) 175 % of control; (dose: 25.0 mg/kg/injection, schedule: Q01DX001 (ip), vehicle: other) 122 % of control; (dose: 33.0 mg/kg/injection, schedule: Q01DX009 (ip), vehicle: carboxymethylcellulose (CMC)) 188 % of control; (dose: 45.0 mg/kg/injection, schedule: Q01DX001 (ip), vehicle: other) 123 % of control; (dose: 50.0 mg/kg/injection, schedule: Q01DX009 (ip), vehicle: carboxymethylcellulose (CMC)) 163 % of control. Moreover, the T/C is 123 % of control (dose: 80.0 mg/kg/injection, schedule: Q01DX009 (ip), vehicle: other); 182 % of control (dose: 177.0 mg/kg/injection, schedule: Q01DX001 (ip), vehicle: carboxymethylcellulose (CMC)); 154 % of control (dose: 177.0 mg/kg/injection, schedule: Q01DX001 (ip), vehicle: other); 107 % of control (dose: 177.0 mg/kg/injection, schedule: Q01DX009 (ip), vehicle: carboxymethylcellulose (CMC)); 178 % of control (dose: 266.0 mg/kg/injection, schedule: Q01DX001 (ip), vehicle: carboxymethylcellulose (CMC)); 154 % of control (dose: 266.0 mg/kg/injection, schedule: Q01DX001 (ip), vehicle: other). In addition, the T/C is 97 % of control (dose: 266.0 mg/kg/injection, schedule: Q01DX009 (ip), vehicle: carboxymethylcellulose (CMC)); 193 % of control (dose: 400.0 mg/kg/injection, schedule: Q01DX001 (ip), vehicle: carboxymethylcellulose (CMC)); 96 % of control (dose: 400.0 mg/kg/injection, schedule: Q01DX009 (ip), vehicle: carboxymethylcellulose (CMC)); 186 % of control (dose: 600.0 mg/kg/injection, schedule: Q01DX001 (ip), vehicle: carboxymethylcellulose (CMC)).
Turning to `CCN(CC)c1cc(C(C)(C)C)cc(C(C)(C)C)c1`, the T/C by setting is: (dose: 100.0 mg/kg/injection, schedule: Q04DX003 (ip), vehicle: saline sonified) 114 % of control; (dose: 200.0 mg/kg/injection, schedule: Q04DX003 (ip), vehicle: saline sonified) 94 % of control; (dose: 400.0 mg/kg/injection, schedule: Q04DX003 (ip), vehicle: saline sonified) 101 % of control.
On to `COc1ccc(C)cc1NC(=O)Nc1cccc(C(F)(F)F)c1`, for which the T/C by setting is: under setting [1], 92 % of control; under setting [3], 86 % of control; under setting [4], 95 % of control.
For `CC1CN=C(c2ccc(Br)cc2)O1` (configuration not stated), the T/C runs as follows: under setting [5], 105 % of control; under setting [6], 89 % of control.
Regarding `CCOC=N`, the T/C reads like this: under setting [7], 95 % of control; under setting [8], 95 % of control; under setting [9], 97 % of control; under setting [10], 101 % of control.
For the compound `CCOC(=O)C(CC(=O)O)C(c1ccccc1)c1ccccc1` (configuration not stated), the T/C was 99 % of control under setting [11]; 105 % of control and 106 % of control under setting [1]; 98 % of control and 103 % of control under setting [12]; 94 % of control under setting [13]; 103 % of control and 105 % of control under setting [3]; 98 % of control and 100 % of control under setting [14]. Besides, the T/C runs as follows: under setting [15], 99 % of control; under setting [4], 98 % of control and 118 % of control; under setting [16], 98 % of control and 103 % of control.
Regarding `CCN(C(=O)c1ccc2c3c(ccc(C(=O)N(CC)c4ccccc4)c13)CC2)c1ccccc1`, the T/C reads like this: under setting [8], 104 % of control; under setting [9], 104 % of control; under setting [10], 95 % of control.
Take `CCOC(=O)C[n+]1ccc(C(=O)c2cc3ccccc3[nH]2)cc1`: the T/C is, setting by setting: under setting [5], 93 % of control; under setting [6], 92 % of control.
In the case of `Cc1ccc(COC(=O)c2cccnc2)cc1`, the T/C by setting is: under setting [11], 103 % of control; under setting [13], 100 % of control; under setting [15], 103 % of control.
Regarding `CCN(CC)CCN(Cc1ccccc1)C(=O)C(O)(c1ccccc1)c1ccccc1`, the T/C was 105 % of control under setting [17] and 108 % of control under setting [18].
Take `CC/C=C1\CCOC1=O`: the T/C under setting [19] is 102 % of control; the T/C under setting [20] is 102 % of control; the T/C (dose: 400.0 mg/kg/injection, schedule: Q04DX002 (ip), vehicle: saline) was 115 % of control.
On to `CCCCCSP(=S)(C(C)C)C(C)C`, for which the T/C is, setting by setting: under setting [17], 95 % of control; under setting [18], 93 % of control; under setting [21], 91 % of control.
Turning to `O=C1c2ccccc2C(=O)N1OCc1cc(Cl)sc1Cl`, the T/C was 97 % of control under setting [22]; 96 % of control (dose: 200.0 mg/kg/injection, schedule: Q04DX003 (ip), vehicle: saline with Tween-80); 104 % of control (dose: 400.0 mg/kg/injection, schedule: Q04DX003 (ip), vehicle: saline with Tween-80).
Consider `COc1ccc(CCN(C)C(c2ccccc2)c2ccccc2)cc1OC`, for which the T/C under setting [8] was 100 % of control, the T/C under setting [9] is 96 % of control and the T/C under setting [10] was 104 % of control.
`COC1OC(CCl)C(OC(C)=O)C(OC(C)=O)C1OC(C)=O` (configuration not stated): the T/C runs as follows: under setting [12], 96 % of control and 106 % of control; under setting [14], 104 % of control and 106 % of control; under setting [16], 101 % of control and 103 % of control.
Turning to `Nc1nc(CCCCc2ccc(NC(=O)CBr)cc2)c(CCCCc2ccccc2)c(=O)[nH]1`, the T/C (dose: 6.25 mg/kg/injection, schedule: Q04DX003 (ip), vehicle: saline with Tween-80) was 96 % of control; the T/C (dose: 12.5 mg/kg/injection, schedule: Q04DX003 (ip), vehicle: saline with Tween-80) is 105 % of control; the T/C (dose: 25.0 mg/kg/injection, schedule: Q04DX003 (ip), vehicle: saline with Tween-80) is 102 % of control and 110 % of control; the T/C under setting [7] was 108 % of control; the T/C under setting [22] is 91 % of control.
`O=C(O)c1ccccc1C(=O)OC1=CS(=O)(=O)CC1`: the T/C reads like this: (dose: 50.0 mg/kg/injection, schedule: Q01DX001 (ip), vehicle: saline with Tween-80) 97 % of control; under setting [17], 101 % of control and 104 % of control; under setting [18], 95 % of control and 123 % of control; under setting [21], 104 % of control and 105 % of control.
As for `Cc1cccc(C(=O)OCc2ccccc2CN2CCCC2)c1`, the T/C runs as follows: under setting [19], 93 % of control; under setting [20], 104 % of control.
For the compound `CCCC1([N+]2(C)CCCC2)CS(=O)C1CC` (configuration not stated), the T/C is 98 % of control (dose: 100.0 mg/kg/injection, schedule: Q04DX003 (ip), vehicle: saline) and 93 % of control (dose: 200.0 mg/kg/injection, schedule: Q04DX003 (ip), vehicle: saline).
